We go through 3 compounds from publication PMC9031459, “Experimental Comparison of Primary and hiPS-Based In Vitro Blood–Brain Barrier Models for Pharmacological Research” (Pharmaceutics, 2022).

One data set relates to pBCECs. As to the kind of experiment: Permeability across primary porcine BCEC monolayer on Transwell inserts (static). The data set is classed as in vitro ADME, Sus scrofa domestica. Conditions: 3 h incubation. How it is done: The substances of interest were added to the apical side of the membranes, incubated for 3 h at 37 °C, 5% CO2 and 90% relative humidity, and then the samples were collected from the apical and basolateral compartment for measurement.

Data set [1] relates to hiPS-BCECs. The experiment in a line: Permeability/transport across hiPS-derived BCEC monolayer on membrane inserts (static). To be noted: for permeability coefficient: hiPS-BCECs; for caffeine concentration, basolateral side / caffeine concentration, apical side: Figure 8B (static system), 100 µM caffeine apical. How it is done:
(§1) The stem cell line UKKi011-A was differentiated according to the protocol published by Stebbins et al. with slight modifications (Figure 2B). Cells were seeded at a density of 5 × 10^3 cells cm^−2 on Matrigel-coated (Corning, Amsterdam, The Netherlands) 6-well plates and cultivated for 3 days in mTeSR1 medium (Stem Cell Technologies, Vancouver, BC, Canada) before initiating the differentiation. On day 0, the mTeSR1 medium was switched to unconditioned medium (DMEM/F12 with 20% knock-out serum replacement, 1% non-essential amino acids, 0.5% GlutaMAX and […] 2-mercaptoethanol) and medium was exchanged daily for 5 days. On day 6, the medium was changed to endothelial medium with growth factors (heSFM with 1% platelet-poor plasma-derived human serum (PDS; SigmaAldrich, Taufkirchen, Germany), 20 ng mL^−1 bFGF (R&D Systems, Minneapolis, MN, USA) and 10 µM retinoic acid (SigmaAldrich, Taufkirchen, Germany)). On day 8, cells were dissociated with Accutase for 25 min at 37 °C and seeded at a density of 1 × 10^6 cells cm^−2 in endothelial medium with growth factors. Cells were seeded onto membrane inserts with 3.0 µm pore size (VWR International, Darmstadt, Germany) and coated with 400 µg mL^−1 human collagen IV (SigmaAldrich, Taufkirchen, Germany) and 100 µg mL^−1 fibronectin (SigmaAldrich, Taufkirchen, Germany) in 0.05% acetic acid. The medium was changed 24 h after seeding to either endothelial medium without growth factors (heSFM with 1% PDS) or enriched endothelial medium (heSFM with 5% PDS) on the apical side and heSFM on the basolateral side. Experiments were performed on day 10 or 11.
(§2) The substances of interest were added to the apical side of the membranes, incubated for 3 h at 37 °C, 5% CO2 and 90% relative humidity, and then the samples were collected from the apical and basolateral compartment for measurement. In the microfluidic setup, sodium fluorescein and caffeine (SigmaAldrich, Taufkirchen, Germany) were added to the apical channel and samples were collected 4, 24, 48 (only caffeine) and 72 h after application from both fluidic channels.
(§3) Sodium fluorescein was added to a final concentration of 1 µg mL^−1, the samples were transferred to black 96-well plates and fluorescence was measured at an excitation of 485 nm and emission of 535 nm with a Tecan infinite 200 plate reader (Tecan Group Ltd., Männedorf, Switzerland).
(§4) After incubation, the apical and basolateral medium were collected separately, transferred to plastic vials containing 5 mL Ultima Gold scintillation liquid (Perkin Elmer, Waltham, MA, USA) and radioactive decay was measured with a Tri-Carb 2910TR Scintillation counter (Perkin Elmer, Waltham, MA, USA).
(§5) Caffeine was added to a final concentration of 100 µM to the apical circuit. […] Detection was achieved using a Diode-Array-Detector (DAD) at a wavelength of 275 nm.

The test system of data set [2] is hiPS-BCECs. As to the kind of experiment: Permeability/transport across hiPS-BCEC barrier in microfluidic Quasi Vivo QV600 setup. To be noted: fluidic system; for caffeine concentration, basolateral side: 100 µM caffeine apical.
Description: (§6) The microfluidic studies were performed using the commercial Quasi Vivo® QV600 system ([…] ., York, UK). […] On day 10, when the barrier has been established, the membrane containing the blood-brain barrier was inserted into the QV 600 chamber. The apical channel was filled with enriched endothelial medium (heSFM with 5% […] added to the basolateral channel. A fluidic flow with a flow rate of 200 μL min^-1 was established and experiments were performed for up to 4 days. […] For comparison, samples in the static setting were collected at the same time points with a separate insert for each time point. […] Standard dilutions of sample media were used for quantification and sample media from cell wells without sodium fluorescence application were used for background subtraction. All measurements were performed in duplex at least. […] Samples were collected from both the apical and basolateral circuits, filtered using Whatman Mini-UniPrepTM filters (VWR International, […] , Germany) and caffeine concentrations measured using HPLC. […] At a flow rate of 0.4 mL min^-1, 5 μL of sample was injected and separated at a column temperature of 60 °C.
Data set [3] is described as follows: Permeability/transport across hiPS-derived BCEC monolayer on membrane inserts (static). To be noted: human. How it is done: as §1, §2, §3, §4, §5
Data set [4] can be described thus: Permeability/transport across hiPS-BCEC barrier in microfluidic Quasi Vivo QV600 setup. To be noted: human, not told.
Description: as §6
For data set [5], the system named is co-culture model of human hiPS-BCECs and rat glial cells. Also noted: method as in PMID 31690750. Conditions: literature value ref 24; cited from earlier work.
Setting [6] is: static, established protocol / equal serum distribution (1% PDS both sides), apical application, 3 h incubation.
The mark [7] stands for this setting: static, serum only in apical medium (5% PDS apical, serum-free basolateral), 3 h incubation.

On to `O=C([O-])c1ccccc1-c1c2ccc(=O)cc-2oc2cc([O-])ccc12.[Na+].[Na+]` [sodium fluorescein], for which the permeability coefficient in the data set with pBCECs (5% FCS apical, serum-free basolateral) is 0.62 ×10⁻⁶ cm/s; in the data set with pBCECs (established protocol (serum-free medium on both sides), apical application) it was 1.85 ×10⁻⁶ cm/s; in the data set with hiPS-BCECs [1] (static system compared with fluidic, 5% PDS apical, serum-free basolateral) it was 0.81 × 10^–6 ± 0.82 × 10^–7 cm s^−1; with hiPS-BCECs [1] (setting [6]), 1.41e-06 cm/s; in the data set on hiPS-BCECs [1] (setting [7]), 8e-07 cm/s; in the data set on hiPS-BCECs [2] (hiPS-BCECs, flow 200 µL min^−1, 5% PDS apical, serum-free basolateral) it was 2.75 × 10^–6 ± 1.61 × 10^–6 cm s^−1.
On to `Cn1c(=O)c2c(ncn2C)n(C)c1=O` [caffeine], for which the “caffeine concentration, basolateral side” value with hiPS-BCECs [1] (4 h) came to 24.46 ± 1.90 µM; in the data set with hiPS-BCECs [1] (24 h), 36.19 ± 3.18 µM; in the data set with hiPS-BCECs [1] (48 h) it was 37.97 ± 2.88 µM; in the data set with hiPS-BCECs [2] (4 h), 5.91 ± 3.36 µM; in the data set on hiPS-BCECs [2] (24 h), 14.85 ± 3.50 µM; in the data set with hiPS-BCECs [2] (48 h), 17.08 ± 4.44 µM. Moreover, the “caffeine concentration, basolateral side” value in the data set with hiPS-BCECs [2] (72 h) is recorded as 17.72 ± 3.34 µM. Also, the “caffeine concentration, apical side” value with hiPS-BCECs [1] (24 h) is reported as 36.30 ± 2.71 µM; in the data set on hiPS-BCECs [1] (48 h), 37.74 ± 3.02 µM. For the same compound, the Papp (usually a coefficient for how fast a substance crosses the barrier) at 100 µM in data set [3] is 9 ×10⁻⁶ cm/s; in data set [4], 30.4 ×10⁻⁶ cm/s. The “permeability coefficient, literature value” in data set [5] is on record as 3.1 × 10^–5 cm s^−1.
inulin [[14C]-inulin]: the permeability coefficient in the data set on hiPS-BCECs [1] (setting [6]) amounted to 3.19e-06 cm/s; in the data set on hiPS-BCECs [1] (setting [7]), 8.9e-07 cm/s.
